Results from ChEMBL document CHEMBL5729337, “Substituted eneoxindoles and uses thereof” (2022).

Biological target: Mitogen-activated protein kinase kinase kinase kinase 1 (Homo sapiens, UniProt Q92918)
Test: Biochemical Assay: The enzymatic activity of human HPK1 (MAP4K1) was monitored in a biochemical assay in the presence or absence of compounds and using a synthetic peptide substrate. An increase in phosphorylation of the peptide by HPK1 was indicative of its kinase activity.Recombinant HPK1 kinase domain produced via baculovirus infection of insect cells was obtained from Proteros (Proteros Biostructures #PR-0322) and was pre-activated in the presence of 2 mM ATP (Sigma-Aldrich, cat #GE27-2056-01) and 2 mM magnesium chloride for 16 hours at 4° C. The protein reaction mixture was then loaded to a desalting column (Thermo Fisher Scientific, Cat #89889) to remove excess ATP. HPK1 was eluted with buffer containing 20 mM Tris (2-Amino-2-(hydroxymethyl)propane-1,3-diol) pH 8.0, 150 mM NaCl, 2 mM dithiothreitol and 5% glycerol, and was frozen at −80° C. for later use. HPK1 dual phosphorylation was confirmed by mass spectrometry.

Sequence of Mitogen-activated protein kinase kinase kinase kinase 1 (Q92918 whole entry, the tested form may be a part): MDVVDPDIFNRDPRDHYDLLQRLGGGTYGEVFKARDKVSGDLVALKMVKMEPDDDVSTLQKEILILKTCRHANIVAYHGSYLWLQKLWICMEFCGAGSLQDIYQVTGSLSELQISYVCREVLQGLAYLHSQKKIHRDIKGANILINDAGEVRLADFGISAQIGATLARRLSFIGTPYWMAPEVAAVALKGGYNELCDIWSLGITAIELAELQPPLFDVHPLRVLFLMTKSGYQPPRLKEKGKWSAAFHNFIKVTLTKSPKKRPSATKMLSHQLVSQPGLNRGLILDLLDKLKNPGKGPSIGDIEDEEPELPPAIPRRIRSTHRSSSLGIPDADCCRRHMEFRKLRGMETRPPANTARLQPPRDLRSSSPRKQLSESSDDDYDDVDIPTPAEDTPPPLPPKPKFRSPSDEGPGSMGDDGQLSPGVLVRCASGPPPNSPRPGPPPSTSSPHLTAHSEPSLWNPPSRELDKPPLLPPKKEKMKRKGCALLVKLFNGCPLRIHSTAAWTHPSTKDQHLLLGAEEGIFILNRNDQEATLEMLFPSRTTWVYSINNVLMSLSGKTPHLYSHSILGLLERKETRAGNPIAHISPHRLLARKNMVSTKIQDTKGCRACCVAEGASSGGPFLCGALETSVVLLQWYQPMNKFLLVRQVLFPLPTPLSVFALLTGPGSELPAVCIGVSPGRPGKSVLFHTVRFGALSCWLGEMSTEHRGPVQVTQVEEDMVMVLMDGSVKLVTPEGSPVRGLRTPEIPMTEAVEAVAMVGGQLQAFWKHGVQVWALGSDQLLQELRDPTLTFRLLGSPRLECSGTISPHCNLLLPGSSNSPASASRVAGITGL

- IC50: 0.1 nM
Structure (SMILES): Cc1c(-c2cc(F)c3c(c2)/C(=C/c2cc4cnccc4[nH]2)C(=O)N3)cnc2c1NCCO2
